US7235375B2, “Organic anion transport proteins” (Bristol-Myers Squibb Company, priority 1999, dated 2007)
Where two headings read alike, the source gives them in different places.

Target: T1, OATP2 (Homo sapiens, UniProt Q9Y6L6, N130D)
T1 sequence (Q9Y6L6 1-691 N130D): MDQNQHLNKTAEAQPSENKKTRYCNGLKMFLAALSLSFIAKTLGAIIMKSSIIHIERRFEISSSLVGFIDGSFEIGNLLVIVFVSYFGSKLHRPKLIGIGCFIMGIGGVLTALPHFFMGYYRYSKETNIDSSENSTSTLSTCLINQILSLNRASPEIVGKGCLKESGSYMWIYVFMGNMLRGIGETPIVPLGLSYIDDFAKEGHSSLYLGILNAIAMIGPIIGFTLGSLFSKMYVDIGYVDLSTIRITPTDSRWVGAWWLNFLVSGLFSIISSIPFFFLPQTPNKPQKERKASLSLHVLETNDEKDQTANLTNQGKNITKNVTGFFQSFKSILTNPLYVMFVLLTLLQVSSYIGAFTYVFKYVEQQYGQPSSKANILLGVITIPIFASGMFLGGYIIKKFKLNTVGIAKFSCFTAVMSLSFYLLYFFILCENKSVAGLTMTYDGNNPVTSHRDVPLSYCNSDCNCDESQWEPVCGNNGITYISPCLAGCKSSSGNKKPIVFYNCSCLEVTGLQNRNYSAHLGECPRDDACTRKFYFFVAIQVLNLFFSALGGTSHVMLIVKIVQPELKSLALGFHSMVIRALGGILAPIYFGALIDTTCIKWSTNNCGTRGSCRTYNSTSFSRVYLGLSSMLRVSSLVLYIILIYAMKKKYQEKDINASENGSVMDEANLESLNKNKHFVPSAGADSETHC
Settings: 293EBNA (HEK293 derivative) cells transfected with pCEP-OATP2 or empty vector (MOCK), uptake for 5 minutes, absence and presence of excess unlabeled substrate, FIG. 2
Description: An assay for the measurement of OATP activity is performed as follows: HEK293 cells are plated in Dulbeccos Modified Eagles Medium (DMEM) plus 10% fetal bovine serum plus penicillin and streptomycin, in poly-d-lysine coated dishes and co-transfected with OATP transporter expression plasmids using Lipofectamine Plus (Life Technologies, Inc.). The cells and media are assayed for substrate transport 24 hours later. Alternatively, cell lines engineered to stably express OATPs could be plated and assayed directly without transfection. To measure transport, media is removed and monolayers are assayed in triplicate by washing once in serum-free DMEM and adding the same medium containing [^3H]-substrate alone or in the presence of various concentrations of unlabeled test compounds. […] The transport activity is expressed as moles of substrate transported into cells/mg of cell protein/minute. […]
293EBNA cells (Invitrogen, Inc.), an HEK293 cell derivative, were transiently transfected with the OATP2 expression vector pCEP-OATP2, or the pCEP4 vector alone (MOCK) and the transport of [^3H]-labeled substrates was determined 24 hours later. […] The uptake of radiolabeled substrate for 5 minutes into cells transfected with pCEP-OATP2 or empty vector (MOCK) was determined in the absence (solid bars) and presence (open bars) of excess unlabeled substrate.

## NC(Cc1cc(I)c(Oc2cc(I)c(O)c(I)c2)c(I)c1)C(=O)O (centres unmarked) [thyroid hormone (T4)]
  transport (specific uptake of radiolabeled substrate) by OATP2: specific uptake
Listed as thyroid hormone (T)
  transport (specific uptake of radiolabeled substrate) by OATP2: transports
